Several values for one entry are separate records, joined by “and”; a condition that tells them apart may be missing. Equal entries are not always repeated.
Details: Liquid, Manometric method

CC(N)CN (centres undefined) [1,2-propanediamine]
Details	vapor or sublimation pressure
284.01 K	0.5922 kPa
293.15 K	1.085 kPa
293.98 K	1.147 kPa and 1.145 kPa
303.15 K	2.004 kPa
303.91 K	2.1 kPa and 2.098 kPa
313.15 K	3.535 kPa
313.84 K	3.667 kPa and 3.669 kPa and 3.659 kPa
323.15 K	5.985 kPa
324.02 K	6.238 kPa
333.15 K	9.764 kPa
334 K	10.11 kPa
343.15 K	15.41 kPa
353.15 K	23.61 kPa
363.15 K	35.21 kPa
363.91 K	36.31 kPa and 36.33 kPa

NCCCN [1,3-propanediamine]
Details	vapor or sublimation pressure
284.84 K	0.3186 kPa and 0.3177 kPa
293.15 K	0.5332 kPa
294.82 K	0.5842 kPa
303.15 K	0.9648 kPa
313.15 K	1.688 kPa
314.79 K	1.829 kPa
323.15 K	2.863 kPa
324.9 K	3.145 kPa
333.15 K	4.72 kPa
334.87 K	5.175 kPa
343.15 K	7.58 kPa
344.87 K	8.263 kPa
353.15 K	11.88 kPa
354.83 K	12.67 kPa
363.15 K	18.22 kPa
364.78 K	19.47 kPa

NCCCCN [1,4-butanediamine]
Details	vapor or sublimation pressure
284.92 K	0.1292 kPa and 0.1296 kPa
293.15 K	0.2012 kPa
303.15 K	0.3324 kPa
312.83 K	0.54 kPa
313.15 K	0.5322 kPa
323.15 K	0.8282 kPa
332.86 K	1.276 kPa
333.15 K	1.256 kPa
342.85 K	1.703 kPa
343.15 K	1.859 kPa
352.87 K	2.691 kPa and 2.692 kPa
353.15 K	2.692 kPa
362.86 K	3.797 kPa and 3.813 kPa and 3.794 kPa
362.88 K	3.8 kPa
362.9 K	3.807 kPa
363.15 K	3.822 kPa

NCCN [ethane-1,2-diamine]
Details	vapor or sublimation pressure
285.5 K	0.659 kPa
293.15 K	1.139 kPa
303.15 K	2.179 kPa
305.44 K	2.559 kPa
313.15 K	3.937 kPa
315.43 K	4.484 kPa
315.48 K	4.485 kPa
323.15 K	6.767 kPa
326.2 K	7.827 kPa
333.15 K	11.13 kPa
335.88 K	12.41 kPa
343.15 K	17.62 kPa
345.7 K	19.74 kPa and 19.73 kPa and 19.72 kPa
353.15 K	26.93 kPa
355.67 K	29.85 kPa and 29.83 kPa
355.69 K	29.84 kPa
363.15 K	39.94 kPa
365.6 K	43.83 kPa [middle of 4 runs]
365.63 K	43.82 kPa and 43.83 kPa and 43.81 kPa

O [water]
Details	vapor or sublimation pressure
285.15 K	1.362 kPa
293.15 K	2.277 kPa
295.14 K	2.562 kPa
303.15 K	4.165 kPa
313.15 K	7.284 kPa
315.19 K	8.02 kPa
323.15 K	12.23 kPa
325.11 K	13.5 kPa and 13.53 kPa
325.13 K	13.5 kPa and 13.52 kPa and 13.53 kPa
333.15 K	19.82 kPa
335.12 K	21.77 kPa
343.15 K	31.09 kPa
345.05 K	33.84 kPa
345.07 K	33.85 kPa and 33.84 kPa
353.15 K	47.34 kPa
355.03 K	51.15 kPa
363.15 K	70.22 kPa
364.97 K	75.14 kPa [middle of 5 runs]

From the NIST ThermoML archive (doi:10.1016/j.jct.2010.12.010)
